Experimental data: patent publication US10576085B2, “Substituted aminopurine compounds, compositions thereof, and methods of treatment therewith” (Signal Pharmaceuticals, LLC, priority 2016, dated 2020)

Tested on: cancer cell lines of Table 2
Test: Multiplexed cytotoxicity assay: apoptosis (activated caspase-3; Cal_X2, Cal_X5, Max_Fold_Change)
Assay type: cell-based
Description: Cells are grown in RPMI1640, 10% FBS, 2 mM L-alanyl-L-Glutamine, 1 mM Na pyruvate or a special medium in a humidified atmosphere of 5% CO2 at 37° C. Cells are seeded into 384-well plates and incubated in a humidified atmosphere of 5% CO2 at 37° C. Compounds are added 24 h post cell seeding. At the same time, a time zero untreated cell plate is generated. After a 72 hour incubation period, cells are fixed and stained with fluorescently labeled antibodies and nuclear dye to allow visualization of nuclei, apoptotic cells and mitotic cells. Apoptotic cells are detected using an anti-active caspase-3 antibody. Mitotic cells are detected using an anti phospho-histone-3 antibody. Compounds are serially diluted 3.16-fold and assayed over 10 concentrations in a final assay concentration of 0.1% DMSO from the highest test concentration of 10 μM. Automated fluorescence microscopy was carried out using a Molecular Devices ImageXpress Micro XL high-content imager, and images are collected with a 4× objective.
The activated caspase-3 marker labels cells from early to late stage apoptosis. Concentrations of test compound that cause a 5-fold induction in the caspase-3 signal (Cal_X5) indicate significant apoptosis induction. The maximal induction of caspase 3 by compound in comparison with DMSO control is reported as Max_Fold_Change.
In Another Experiment, Cells were Grown in RPMI1640, 10% FBS, 2 mM L-alanyl-L-Glutamine, 1 mM Na pyruvate or a special medium in a humidified atmosphere of 5% CO2 at 37° C. Cells were seeded into 384-well plates and incubated in a humidified atmosphere of 5% CO2 at 37° C. Compounds were added 24 h post cell seeding. At the same time, a time zero untreated cell plate was generated. After a 72 hour incubation period, cells were fixed and stained with fluorescently labeled antibodies and nuclear dye to allow visualization of nuclei, apoptotic cells and mitotic cells. Apoptotic cells were detected using an anti-active caspase-3 antibody. Mitotic cells were detected using an anti phospho-histone-3 antibody. Compounds were serially diluted 3.16-fold and assayed over 10 concentrations in a final assay concentration of 0.1% DMSO from the highest test concentration of 10 μM. Automated fluorescence microscopy was carried out using a Molecular Devices ImageXpress Micro XL high-content imager, and images were collected with a 4× objective.
The activated caspase-3 marker labels cells from early to late stage apoptosis. Concentrations of test compound that cause a 2-fold (Cal-X2) or 5-fold induction in the caspase-3 signal (Cal_X5) indicated significant apoptosis induction. The maximal induction of caspase 3 by compound in comparison with DMSO control was reported as Max_Fold_Change.

C[C@]1(C(N)=O)CC[C@@H](n2c(Nc3c(Cl)cc(Cl)cc3Cl)nc3cnc(N[C@@H]4CCOC[C@H]4F)nc32)CC1 [Compound 1, cis-4-[2-{[(3S,4R)-3-fluorooxan-4-yl]amino}-8-(2,4,6-trichloroanilino)-9H-purin-9-yl]-1-methyl cyclohexane-1-carboxamide]
CalX2 (HS611T, Lymphoma): 2.8507 µM | CalX5 (HS611T, Lymphoma): 10 µM | Max fold change (HS611T, Lymphoma): 3.84 | CalX2 (HS688AT, Skin, Melanoma): 10 µM | CalX5 (HS688AT, Skin, Melanoma): 10 µM | Max fold change (HS688AT, Skin, Melanoma): 1.61 | CalX2 (HS695T, Skin, Melanoma): 0.0253 µM | CalX5 (HS695T, Skin, Melanoma): 0.0727 µM | Max fold change (HS695T, Skin, Melanoma): 22.05 | CalX2 (HS852T, Skin, Melanoma): 0.05 µM | CalX5 (HS852T, Skin, Melanoma): 0.234 µM | Max fold change (HS852T, Skin, Melanoma): 6.51 | CalX2 (HT1197, Bladder): 0.1601 µM | CalX5 (HT1197, Bladder): 10 µM | Max fold change (HT1197, Bladder): 4.16 | CalX2 (HT1376, Bladder): 0.0524 µM | CalX5 (HT1376, Bladder): 0.167 µM | Max fold change (HT1376, Bladder): 10.87 | CalX2 (HT, Lymphoma): 8.6354 µM | CalX5 (HT, Lymphoma): 10 µM | Max fold change (HT, Lymphoma): 2.44 | CalX2 (HUCCT1, Liver): 0.0222 µM | CalX5 (HUCCT1, Liver): 0.0406 µM | Max fold change (HUCCT1, Liver): 11.54 | CalX2 (HUH6CLONE5, Liver): 0.0631 µM | CalX5 (HUH6CLONE5, Liver): 0.302 µM | Max fold change (HUH6CLONE5, Liver): 8.25 | CalX2 (J82, Bladder): 2.4365 µM | CalX5 (J82, Bladder): 10 µM | Max fold change (J82, Bladder): 3.17 | CalX2 (JEKO1, Lymphoma): 4.3369 µM | CalX5 (JEKO1, Lymphoma): 10 µM | Max fold change (JEKO1, Lymphoma): 3.11 | CalX2 (JIYOYE, Lymphoma): 4.4004 µM | CalX5 (JIYOYE, Lymphoma): 5.35 µM | Max fold change (JIYOYE, Lymphoma): 11.1 | CalX2 (JRT3T35, Leukemia): 2.6364 µM | CalX5 (JRT3T35, Leukemia): 3.8 µM | Max fold change (JRT3T35, Leukemia): 14.26 | CalX2 (JURKAT, Leukemia): 1.6173 µM | CalX5 (JURKAT, Leukemia): 3.28 µM | Max fold change (JURKAT, Leukemia): 14.48 | CalX2 (K562, Leukemia): 2.9298 µM | CalX5 (K562, Leukemia): 4.86 µM | Max fold change (K562, Leukemia): 51.89 | CalX2 (KG1, Leukemia): 2.5811 µM | CalX5 (KG1, Leukemia): 10 µM | Max fold change (KG1, Leukemia): 2.5 | CalX2 (KU812, Leukemia): 0.03 µM | CalX5 (KU812, Leukemia): 8.02 µM | Max fold change (KU812, Leukemia): 5.63 | CalX2 (L428, Lymphoma): 4.2384 µM | CalX5 (L428, Lymphoma): 5.88 µM | Max fold change (L428, Lymphoma): 7.51 | CalX2 (MC116, Lymphoma): 2.8763 µM | CalX5 (MC116, Lymphoma): 5.18 µM | Max fold change (MC116, Lymphoma): 9.46 | CalX2 (MEG01, Leukemia): 0.5718 µM | CalX5 (MEG01, Leukemia): 10 µM | Max fold change (MEG01, Leukemia): 2.77 | CalX2 (MHHPREB1, Leukemia): 5.1142 µM | CalX5 (MHHPREB1, Leukemia): 7.66 µM | Max fold change (MHHPREB1, Leukemia): 11.43 | CalX2 (MOLT3, Leukemia): 5.88 µM | CalX5 (MOLT3, Leukemia): 10 µM | Max fold change (MOLT3, Leukemia): 3.63 | CalX2 (MOLT16, Leukemia): 2.4102 µM | CalX5 (MOLT16, Leukemia): 4.97 µM | Max fold change (MOLT16, Leukemia): 8.06 | CalX2 (MV411, Leukemia): 0.0933 µM | CalX5 (MV411, Leukemia): 1.15 µM | Max fold change (MV411, Leukemia): 8.12 | CalX2 (MX1, Leukemia): 1.1016 µM | CalX5 (MX1, Leukemia): 10 µM | Max fold change (MX1, Leukemia): 3.78 | CalX2 (NALM6, Leukemia): 0.1241 µM | CalX5 (NALM6, Leukemia): 10 µM | Max fold change (NALM6, Leukemia): 5 | CalX2 (NAMALWA, Lymphoma): 5.9431 µM | CalX5 (NAMALWA, Lymphoma): 10 µM | Max fold change (NAMALWA, Lymphoma): 2.68 | CalX2 (OCUG1, Liver): 0.0848 µM | CalX5 (OCUG1, Liver): 0.49 µM | Max fold change (OCUG1, Liver): 5.49 | CalX2 (RAJI, Lymphoma): 2.5564 µM | CalX5 (RAJI, Lymphoma): 4.07 µM | Max fold change (RAJI, Lymphoma): 24.81 | CalX2 (RAMOSRA1, Lymphoma): 4.5496 µM | CalX5 (RAMOSRA1, Lymphoma): 7.39 µM | Max fold change (RAMOSRA1, Lymphoma): 25.1 | CalX2 (REC1, Lymphoma): 10 µM | CalX5 (REC1, Lymphoma): 10 µM | Max fold change (REC1, Lymphoma): 1.86 | CalX2 (RPMI6666, Lymphoma): 3.0419 µM | CalX5 (RPMI6666, Lymphoma): 4.37 µM | Max fold change (RPMI6666, Lymphoma): 26.35 | CalX2 (RS411, Leukemia): 3.8025 µM | CalX5 (RS411, Leukemia): 8.4 µM | Max fold change (RS411, Leukemia): 5.83 | CalX2 (SCABER, Bladder): 0.0086 µM | CalX5 (SCABER, Bladder): 0.0506 µM | Max fold change (SCABER, Bladder): 29.47 | CalX2 (SCC9, Head and Neck): 0.6679 µM | CalX5 (SCC9, Head and Neck): 3.86 µM | Max fold change (SCC9, Head and Neck): 9.58 | CalX2 (SKNEP1, Kidney): 10 µM | CalX5 (SKNEP1, Kidney): 10 µM | Max fold change (SKNEP1, Kidney): 1.15 | CalX2 (SNU423, Liver): 0.0909 µM | CalX5 (SNU423, Liver): 1.65 µM | Max fold change (SNU423, Liver): 7.32 | CalX2 (SR, Lymphoma): 1.2842 µM | CalX5 (SR, Lymphoma): 3.07 µM | Max fold change (SR, Lymphoma): 33.52 | CalX2 (ST486, Lymphoma): 4.2422 µM | CalX5 (ST486, Lymphoma): 6.11 µM | Max fold change (ST486, Lymphoma): 10.85 | CalX2 (SUDHL4, Lymphoma): 2.5668 µM | CalX5 (SUDHL4, Lymphoma): 4.83 µM | Max fold change (SUDHL4, Lymphoma): 10.75 | CalX2 (SUDHL5, Lymphoma): 1.6359 µM | CalX5 (SUDHL5, Lymphoma): 4.54 µM | Max fold change (SUDHL5, Lymphoma): 10.37 | CalX2 (SUDHL8, Lymphoma): 1.2344 µM | CalX5 (SUDHL8, Lymphoma): 4.19 µM | Max fold change (SUDHL8, Lymphoma): 10.79 | CalX2 (SUDHL10, Lymphoma): 3.611 µM | CalX5 (SUDHL10, Lymphoma): 4.87 µM | Max fold change (SUDHL10, Lymphoma): 11.63 | CalX2 (SUPT1, Lymphoma): 4.5476 µM | CalX5 (SUPT1, Lymphoma): 9.21 µM | Max fold change (SUPT1, Lymphoma): 5.76 | CalX2 (T24, Bladder): 4.5443 µM | CalX5 (T24, Bladder): 10 µM | Max fold change (T24, Bladder): 2.61 | CalX2 (TCCSUP, Bladder): 5.6435 µM | CalX5 (TCCSUP, Bladder): 10 µM | Max fold change (TCCSUP, Bladder): 3.67 | CalX2 (TF1, Leukemia): 0.006 µM | CalX5 (TF1, Leukemia): 0.0296 µM | Max fold change (TF1, Leukemia): 16.1 | CalX2 (THP1, Leukemia): 0.132 µM | CalX5 (THP1, Leukemia): 3.9 µM | Max fold change (THP1, Leukemia): 6.3 | CalX2 (TUR, Lymphoma): 0.6984 µM | CalX5 (TUR, Lymphoma): 3.45 µM | Max fold change (TUR, Lymphoma): 17.35 | CalX2 (UMUC3, Bladder): 2.7934 µM | CalX5 (UMUC3, Bladder): 5.76 µM | Max fold change (UMUC3, Bladder): 6.56 | Induction of apoptosis (variety of cancer cell lines): induce apoptosis
